Test results as given in ChEMBL document CHEMBL2034887, “Substituted phenoxypropyl-(R)-2-methylpyrrolidine aminomethyl ketones as histamine-3 receptor inverse agonists” (Bioorg Med Chem Lett, 2012).
Activity calls are given as the source filed them. The rule behind the calls is not given here.

Tests used:
[1] = Half life in monkey liver microsomes; type: ADME, Macaca mulatta, Microsome; conditions: rhesus monkey
Rattus norvegicus [2] = experiment: Inhibition of RAMH-induced dipsogenia in ip dosed rat; type: functional
[3] = Volume of distribution in rat at […], iv; type: ADME, organism-based; conditions: in vivo
Cytochrome P450 2C19 = Cytochrome P450 2C19 (Homo sapiens, UniProt P33261); experiment: (§1) Inhibition of CYP2C19; type: ADME
[4] = Cmax in rat at 5 mg/kg, po; type: ADME, organism-based; set-up: dose 5 mg/kg, route oral; conditions: in vivo
Histamine H3 receptor [5] = biological target: T1, Histamine H3 receptor (Homo sapiens, UniProt Q9Y5N1); experiment: Inverse agonist activity at human histamine H3 receptor by [35S]-GTPgammaS binding assay; type: functional
Cytochrome P450 1A2 = biological target: T2, Cytochrome P450 1A2 (Homo sapiens, UniProt P05177); experiment: (§2) Inhibition of CYP1A2; type: ADME
T2 sequence (P05177 whole entry): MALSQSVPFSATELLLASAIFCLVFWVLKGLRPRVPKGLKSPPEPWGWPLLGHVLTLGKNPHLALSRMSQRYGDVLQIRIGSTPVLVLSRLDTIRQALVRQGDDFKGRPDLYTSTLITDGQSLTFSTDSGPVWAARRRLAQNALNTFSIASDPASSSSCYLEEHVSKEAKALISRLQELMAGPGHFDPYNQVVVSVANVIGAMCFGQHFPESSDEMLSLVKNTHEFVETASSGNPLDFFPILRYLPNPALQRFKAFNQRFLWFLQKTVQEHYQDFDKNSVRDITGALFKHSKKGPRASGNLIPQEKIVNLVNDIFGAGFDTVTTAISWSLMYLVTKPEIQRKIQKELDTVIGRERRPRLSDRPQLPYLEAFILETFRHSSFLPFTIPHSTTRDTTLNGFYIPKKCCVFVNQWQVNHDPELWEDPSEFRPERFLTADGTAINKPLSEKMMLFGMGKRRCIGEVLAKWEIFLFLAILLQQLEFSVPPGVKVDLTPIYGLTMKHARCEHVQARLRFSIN

Cytochrome P450 2D6 = Cytochrome P450 2D6 (Homo sapiens, UniProt P10635); experiment: (§3) Inhibition of CYP2D6; type: ADME
[6] = Half life in mouse liver microsomes; type: ADME, Microsome
[7] = AUC in rat at 5 mg/kg, po; type: ADME, organism-based; set-up: dose 5 mg/kg, route oral; conditions: plasma
[8] = Clearance in rat at […], iv; type: ADME, organism-based; conditions: in vivo
Histamine H3 receptor [9] = biological target: Histamine H3 receptor (Rattus norvegicus, UniProt Q9QYN8); experiment: Displacement of [3H]NAMH from rat histamine H3 receptor expressed in CHO cells; type: cell-based
[10] = Half life in dog liver microsomes; type: ADME, Canis lupus familiaris, Microsome
[11] = Half life in rat liver microsomes; type: ADME, Microsome
Cytochrome P450 2C9 = Cytochrome P450 2C9 (Homo sapiens, UniProt P11712); experiment: (§4) Inhibition of CYP2C9; type: ADME
[12] = Half life in human liver microsomes; type: ADME, Microsome
[13] = Oral bioavailability in rat at 5 mg/kg; type: ADME, organism-based; conditions: in vivo
[14] = Ratio of drug level in brain to plasma in rat at 5 mg/kg, po measured after 6 hrs; type: ADME, organism-based; set-up: dose 5 mg/kg, route oral; conditions: read-out: BPR
[15] = Half life in rat at […], iv; type: ADME, organism-based; conditions: in vivo
Cytochrome P450 3A4 = Cytochrome P450 3A4 (Homo sapiens, UniProt P08684); experiment: (§5) Inhibition of CYP3A4; type: ADME
Histamine H3 receptor [16] = biological target: T1, Histamine H3 receptor; experiment: Antagonist activity at human histamine H3 receptor assessed as inhibition of [35S]-GTPgammaS binding; type: functional
Rattus norvegicus [17] = experiment: Wake promoting activity in EEG/EMG Sprague-Dawley rat model at 10 to 30 mg/kg, ip measured after 9 hrs; type: functional, organism-based
Histamine H3 receptor [18] = biological target: T1, Histamine H3 receptor; experiment: Displacement of [3H]NAMH from human histamine H3 receptor expressed in CHO cells; type: cell-based
Rattus norvegicus [19] = experiment: Wake promoting activity in EEG/EMG Sprague-Dawley rat model at 30 mg/kg, ip measured after 4 hrs relative to vehicle-treated control; type: functional; conditions: route intraperitoneal
Caco-2 = experiment: Permeability across human Caco2 cells; type: ADME, cell-based
CYP2C19 = CYP2C19 (Homo sapiens, UniProt P33261); experiment: as §1; type: ADME
[20] = biological target: Histamine H1 receptor (Homo sapiens) (UniProt P35367); experiment: Inhibition of human histamine H1 receptor at 10 uM
hERG (KCNH2) = hERG (KCNH2) (Homo sapiens, UniProt Q12809); experiment: Inhibition of human ERG at 10 uM
CYP1A2 = biological target: T3, CYP1A2 (Homo sapiens, UniProt P05177); experiment: as §2; type: ADME
T3 sequence (P05177 whole entry): T2 sequence (P05177 whole entry)

CYP2D6 = CYP2D6 (Homo sapiens, UniProt P10635); experiment: as §3; type: ADME
[21] = biological target: Histamine H4 receptor (Homo sapiens) (UniProt Q9H3N8); experiment: Inhibition of human histamine H4 receptor at 10 uM
CYP2C9 = CYP2C9 (Homo sapiens, UniProt P11712); experiment: as §4; type: ADME
[22] = Plasma protein binding in human; type: ADME, cell-free; conditions: read-out: PPB
[23] = Plasma protein binding in rat; type: ADME, cell-free; conditions: read-out: PPB
[24] = biological target: Histamine H2 receptor (Homo sapiens) (UniProt P25021); experiment: Inhibition of human histamine H2 receptor at 10 uM
CYP3A4 = CYP3A4 (Homo sapiens, UniProt P08684); experiment: as §5; type: ADME

T1 sequence (Q9Y5N1 whole entry): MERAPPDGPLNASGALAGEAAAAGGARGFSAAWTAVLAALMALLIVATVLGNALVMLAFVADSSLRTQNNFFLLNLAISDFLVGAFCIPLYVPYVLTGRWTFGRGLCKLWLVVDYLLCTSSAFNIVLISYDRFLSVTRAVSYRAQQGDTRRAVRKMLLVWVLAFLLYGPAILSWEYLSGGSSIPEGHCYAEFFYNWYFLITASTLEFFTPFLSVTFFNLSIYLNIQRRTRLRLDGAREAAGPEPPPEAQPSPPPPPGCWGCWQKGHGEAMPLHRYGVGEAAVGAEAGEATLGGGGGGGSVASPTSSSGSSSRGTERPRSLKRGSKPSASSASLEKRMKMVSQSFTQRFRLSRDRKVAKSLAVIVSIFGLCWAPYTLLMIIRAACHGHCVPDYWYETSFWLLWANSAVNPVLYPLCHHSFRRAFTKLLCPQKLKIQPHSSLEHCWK
Chain of Histamine H3 receptor (Rattus norvegicus, UniProt Q9QYN8) (Q9QYN8 whole entry): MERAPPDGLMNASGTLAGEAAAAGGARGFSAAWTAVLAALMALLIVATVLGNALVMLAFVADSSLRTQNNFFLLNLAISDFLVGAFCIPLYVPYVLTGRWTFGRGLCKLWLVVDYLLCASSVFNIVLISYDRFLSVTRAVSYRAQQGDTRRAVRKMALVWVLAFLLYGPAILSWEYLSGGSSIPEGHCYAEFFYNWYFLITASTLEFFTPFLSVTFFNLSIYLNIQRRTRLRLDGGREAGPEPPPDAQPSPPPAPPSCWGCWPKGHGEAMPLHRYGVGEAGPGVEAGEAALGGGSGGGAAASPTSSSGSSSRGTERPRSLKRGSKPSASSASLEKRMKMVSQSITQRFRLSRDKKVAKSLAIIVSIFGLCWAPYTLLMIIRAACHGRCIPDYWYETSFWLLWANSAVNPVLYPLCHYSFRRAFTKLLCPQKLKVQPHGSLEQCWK
Chain of Cytochrome P450 2C9 (P11712 whole entry): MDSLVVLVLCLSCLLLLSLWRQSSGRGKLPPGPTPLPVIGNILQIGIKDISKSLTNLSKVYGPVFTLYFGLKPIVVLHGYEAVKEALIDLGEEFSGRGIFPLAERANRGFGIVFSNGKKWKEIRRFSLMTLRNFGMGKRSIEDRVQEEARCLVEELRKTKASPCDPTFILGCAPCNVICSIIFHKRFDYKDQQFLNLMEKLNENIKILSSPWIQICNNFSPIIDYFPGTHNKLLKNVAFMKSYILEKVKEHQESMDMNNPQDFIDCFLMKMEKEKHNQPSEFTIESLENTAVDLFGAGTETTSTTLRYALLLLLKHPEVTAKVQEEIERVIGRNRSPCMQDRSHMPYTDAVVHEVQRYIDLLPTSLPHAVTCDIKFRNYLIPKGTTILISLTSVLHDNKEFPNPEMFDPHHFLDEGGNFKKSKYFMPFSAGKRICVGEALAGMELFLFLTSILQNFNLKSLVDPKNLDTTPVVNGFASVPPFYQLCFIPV
Chain of Cytochrome P450 2C19 (P33261 whole entry): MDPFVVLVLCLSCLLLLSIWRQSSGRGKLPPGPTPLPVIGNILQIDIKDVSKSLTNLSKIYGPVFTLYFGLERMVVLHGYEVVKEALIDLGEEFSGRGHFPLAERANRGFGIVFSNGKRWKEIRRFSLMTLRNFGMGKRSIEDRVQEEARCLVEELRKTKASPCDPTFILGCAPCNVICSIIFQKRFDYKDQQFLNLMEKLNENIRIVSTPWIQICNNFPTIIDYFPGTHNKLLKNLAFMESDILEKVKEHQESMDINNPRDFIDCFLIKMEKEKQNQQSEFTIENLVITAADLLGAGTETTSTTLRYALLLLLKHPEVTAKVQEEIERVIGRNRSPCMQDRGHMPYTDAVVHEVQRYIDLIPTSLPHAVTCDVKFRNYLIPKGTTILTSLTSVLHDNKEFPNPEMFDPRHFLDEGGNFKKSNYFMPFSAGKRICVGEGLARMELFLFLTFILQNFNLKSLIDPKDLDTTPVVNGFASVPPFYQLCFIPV
Chain of Cytochrome P450 3A4 (P08684 whole entry): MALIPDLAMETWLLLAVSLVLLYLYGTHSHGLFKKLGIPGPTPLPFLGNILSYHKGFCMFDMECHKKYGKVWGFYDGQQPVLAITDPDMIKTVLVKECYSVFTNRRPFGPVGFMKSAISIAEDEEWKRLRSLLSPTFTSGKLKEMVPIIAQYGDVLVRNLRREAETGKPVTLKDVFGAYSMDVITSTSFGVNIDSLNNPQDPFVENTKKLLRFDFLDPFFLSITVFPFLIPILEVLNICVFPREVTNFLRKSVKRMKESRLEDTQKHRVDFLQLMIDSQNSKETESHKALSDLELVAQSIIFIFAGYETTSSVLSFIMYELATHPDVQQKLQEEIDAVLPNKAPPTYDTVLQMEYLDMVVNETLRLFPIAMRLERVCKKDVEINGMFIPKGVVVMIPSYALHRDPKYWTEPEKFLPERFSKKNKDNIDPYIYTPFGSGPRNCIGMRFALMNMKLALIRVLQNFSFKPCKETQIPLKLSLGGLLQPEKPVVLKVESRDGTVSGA
Chain of Cytochrome P450 2D6 (P10635 whole entry): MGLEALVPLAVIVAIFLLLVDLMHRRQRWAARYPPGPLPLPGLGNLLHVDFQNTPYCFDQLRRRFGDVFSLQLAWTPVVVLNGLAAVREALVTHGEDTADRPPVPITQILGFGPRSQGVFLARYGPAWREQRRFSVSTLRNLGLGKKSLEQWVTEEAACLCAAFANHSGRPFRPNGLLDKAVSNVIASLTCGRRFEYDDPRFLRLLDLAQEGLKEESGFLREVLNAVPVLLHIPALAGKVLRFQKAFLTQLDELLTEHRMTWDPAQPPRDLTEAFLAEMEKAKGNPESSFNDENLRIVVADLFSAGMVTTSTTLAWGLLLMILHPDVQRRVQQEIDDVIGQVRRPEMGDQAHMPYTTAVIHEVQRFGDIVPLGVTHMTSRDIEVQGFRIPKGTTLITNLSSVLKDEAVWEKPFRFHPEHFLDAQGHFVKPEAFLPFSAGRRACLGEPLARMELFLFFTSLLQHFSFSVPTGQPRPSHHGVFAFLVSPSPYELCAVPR
Chain of hERG (KCNH2) (Q12809 whole entry): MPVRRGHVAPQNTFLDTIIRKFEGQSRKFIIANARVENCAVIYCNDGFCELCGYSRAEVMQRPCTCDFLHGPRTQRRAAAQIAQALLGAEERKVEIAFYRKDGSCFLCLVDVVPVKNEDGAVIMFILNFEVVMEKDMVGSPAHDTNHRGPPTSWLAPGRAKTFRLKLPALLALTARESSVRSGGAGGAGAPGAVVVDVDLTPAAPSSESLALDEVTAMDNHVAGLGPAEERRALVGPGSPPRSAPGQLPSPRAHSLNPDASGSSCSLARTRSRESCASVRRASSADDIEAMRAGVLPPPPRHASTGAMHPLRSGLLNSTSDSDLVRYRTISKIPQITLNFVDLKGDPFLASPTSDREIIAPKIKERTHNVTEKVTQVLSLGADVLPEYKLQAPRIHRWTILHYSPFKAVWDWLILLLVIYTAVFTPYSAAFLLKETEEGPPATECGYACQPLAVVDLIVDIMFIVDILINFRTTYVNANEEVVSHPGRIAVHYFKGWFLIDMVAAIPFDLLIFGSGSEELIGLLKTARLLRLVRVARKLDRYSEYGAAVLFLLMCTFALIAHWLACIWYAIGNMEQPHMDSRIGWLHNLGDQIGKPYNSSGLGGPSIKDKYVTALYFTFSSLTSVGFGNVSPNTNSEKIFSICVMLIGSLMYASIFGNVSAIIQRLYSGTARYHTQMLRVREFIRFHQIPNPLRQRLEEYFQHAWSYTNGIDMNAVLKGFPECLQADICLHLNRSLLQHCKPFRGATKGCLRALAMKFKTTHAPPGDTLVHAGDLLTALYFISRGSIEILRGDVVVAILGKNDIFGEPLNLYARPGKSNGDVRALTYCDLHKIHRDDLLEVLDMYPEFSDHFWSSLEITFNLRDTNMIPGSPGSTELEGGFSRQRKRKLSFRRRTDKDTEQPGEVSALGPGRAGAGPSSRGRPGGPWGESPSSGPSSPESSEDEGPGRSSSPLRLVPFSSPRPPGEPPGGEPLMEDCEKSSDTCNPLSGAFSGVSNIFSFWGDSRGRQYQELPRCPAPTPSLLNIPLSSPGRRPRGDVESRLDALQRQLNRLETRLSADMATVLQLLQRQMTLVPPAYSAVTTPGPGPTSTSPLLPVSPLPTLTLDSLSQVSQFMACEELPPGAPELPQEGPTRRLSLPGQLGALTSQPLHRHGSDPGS
Chain of CYP2C9 (P11712 whole entry): as the sequence (P11712 whole entry) above
Chain of CYP2C19 (P33261 whole entry): as the sequence (P33261 whole entry) above

SMILES | half-life [1] [min] | Vd [3] [L/kg] | Cmax [4] [ng/mL] | half-life [6] [min] | AUC [7] [ng·h/mL] | clearance [8] [mL/min/kg] | Ki (Histamine H3 receptor [9]) [nM] | half-life [10] [min] | half-life [11] [min] | half-life [12] [min] | Kp at 6 h [14] | half-life [15] [min] | Ki (Histamine H3 receptor [18]) [nM] | also measured
COC(=O)N1CCN(CC(=O)c2ccc(OCCCN3CCC[C@H]3C)cc2)CC1 | > 40 | 5.4 | 128 | > 40 | 619 | 24 | 19 | > 40 | > 40 | > 40 | 4.3 | 156 | 3.2 | ED50 (Rattus norvegicus [2]): 0.54 mg/kg; inhibition (Rattus norvegicus [2]): Dose-dependent effect; IC50 (Cytochrome P450 2C19): > 30000 nM; EC50 (Histamine H3 receptor [5]): 0.9 nM; IC50 (Cytochrome P450 1A2): > 30000 nM; IC50 (Cytochrome P450 2D6): > 30000 nM; IC50 (Cytochrome P450 2C9): > 30000 nM; bioavailability [13]: 22%; IC50 (Cytochrome P450 3A4): > 30000 nM; Kb (Histamine H3 receptor [16]): 0.4 nM; Activity (Rattus norvegicus [17]): inactive
C[C@@H]1CCCN1CCCOc1ccc(C(=O)CN2CCN(C(=O)c3cccn3C)CC2)cc1 | – | – | – | – | – | – | 9.4 | – | – | – | < 0.6 | – | 0.9 | –
C[C@@H]1CCCN1CCCOc1ccc(C(=O)CN2CCN(C(=O)c3ccccc3)CC2)cc1 | > 40 | 1.4 | 165 | > 40 | 689 | 14 | 14 | > 40 | > 40 | > 40 | 1.5 | 72 | 1.9 | ED50 (Rattus norvegicus [2]): 0.43 mg/kg; inhibition (Rattus norvegicus [2]): Dose-dependent effect; IC50 (Cytochrome P450 2C19): > 30000 nM; EC50 (Histamine H3 receptor [5]): 1 nM; IC50 (Cytochrome P450 1A2): > 30000 nM; IC50 (Cytochrome P450 2D6): > 30000 nM; IC50 (Cytochrome P450 2C9): > 30000 nM; bioavailability [13]: 14%; Activity (Rattus norvegicus [19]): 33%; IC50 (Cytochrome P450 3A4): > 30000 nM; Kb (Histamine H3 receptor [16]): 0.8 nM
C[C@@H]1CCCN1CCCOc1ccc(C(=O)CN2CCN(C(=O)Oc3ccc(F)cc3)CC2)cc1 | – | – | – | – | – | – | 3.7 | – | – | – | – | – | 3 | –
C[C@@H]1CCCN1CCCOc1ccc(C(=O)CN2CCN(C(=O)c3ccco3)CC2)cc1 | – | – | – | – | – | – | 16 | – | – | – | < 0.6 | – | 2 | –
C[C@@H]1CCCN1CCCOc1ccc(C(=O)CN2CCC(F)(F)C2)cc1 | – | – | – | – | – | – | 21 | – | – | – | – | – | 3.4 | –
C[C@@H]1CCCN1CCCOc1ccc(C(=O)CN2CCN(C(=O)Oc3ccccc3)CC2)cc1 | – | – | – | – | – | – | 6.9 | – | – | – | – | – | 3.9 | –
C[C@@H]1CCCN1CCCOc1ccc(C(=O)CN2CCOCC2)cc1 | > 40 | 27 | 17 | > 40 | 81 | 126 | – | > 40 | > 40 | > 40 | 50 | 138 | – | permeability (Caco-2): permeable; IC50 (CYP2C19): > 30000 nM; inhibition [20]: < 50%; inhibition at 10 µM (hERG (KCNH2)): 21%; IC50 (CYP1A2): > 30000 nM; IC50 (CYP2D6): > 30000 nM; inhibition [21]: < 50%; IC50 (CYP2C9): > 30000 nM; fraction unbound [22]: > 0.8; fraction unbound [23]: > 0.8; inhibition [24]: < 50%; IC50 (CYP3A4): > 30000 nM
C[C@@H]1CCCN1CCCOc1ccc(C(=O)CN2CCCC(F)(F)C2)cc1 | – | – | – | – | – | – | 48 | – | – | – | – | – | 9 | –
CC(C)COC(=O)N1CCN(CC(=O)c2ccc(OCCCN3CCC[C@H]3C)cc2)CC1 | – | – | – | – | – | – | 12 | – | – | – | – | – | 4.6 | –
